Source: patent publication US5053333A, “Protease” (M & D Research Co., Ltd., priority 1988, dated 1991)
Where two headings read alike, the source gives them in different places. Numbered stars: 1 amine (or outer) side, 2 acyl side, 3 side chain; on linkers, the order of the positions; unused ones are H or OH. Square brackets hold non-standard residues; d marks the D form. Peptide text beside a SMILES is read from it. * marks the point of attachment. Sta = CC(C)C[C@H](N)[C@@H](O)CC(=O)O; AMC = Cc1cc(=O)oc2cc(N*)ccc12; Suc = O=C(CCC(=O)[*:2])[*:1]; Isovaleryl = CC(C)CC(=O)*; Cbz = O=C(OCc1ccccc1)*; Boc = CC(C)(C)OC(=O)*; CO = O=C([*:1])[*:2]

Legend:
[1] = system: protease specific for basic amino acid residue from Sporobolomyces odrus IFO 1597; experiment: Behavior of Sporobolomyces protease against various inhibitors (residual activity); type: biochemical; details: 25° C. 30 minutes
[2] = system: Benz-I (protease specific for basic amino acid residue); experiment: Behavior of Benz-I against various inhibitors (residual activity); type: biochemical, Kluyveromyces lactis IFO 1903
[3] = system: Benz-II (protease specific for basic amino acid residue); experiment: Behavior of Benz-II against various inhibitors (residual activity); type: biochemical, Kluyveromyces lactis IFO 1903
[4] = system: protease specific for basic amino acid residue from Sporobolomyces odrus IFO 1597; experiment: Substrate specificity of Sporobolomyces protease with fluorescent substrates; type: biochemical; details: activity for Boc-Gln-Arg-Arg-MCA being 100; standard conditions
Description: A reaction mixture containing 50 μmol of tris hydrochloride buffer solution (pH 7.0), 10 mg of Lubrol PX, 0.5 μmol of calcium chloride, 0.1 μmol of Boc-Gln-Arg-Arg-MCA, wherein Boc represents a t-butyloxycalbonyl group while MCA represents 4-methylcoumarin-7-amide and the enzyme is allowed to react at 30° C. The fluorescence (excition wavelength: 380 nm, emission wavelength: 460 nm) originating from the 7-amino-4-methylcoumarin (AMC) thus formed is monitored. The amount of the enzyme capable of catalyzing the release of 1 nmol of AMC per one minute is defined as 1 U.
The activities of the enzyme for various fluorescent substrates were determined under standard reaction conditions.

[5] = inhibitor 5 mM, 25° C. 30 minutes, control lot = 100
[6] = inhibitor 1 mM, 25° C. 30 minutes, control lot = 100
[7] = inhibitor 10 μM, 25° C. 30 minutes, control lot = 100
[8] = inhibitor 0.1%, 25° C. 30 minutes, control lot = 100
[9] = inhibitor 0.2 mM, 25° C. 30 minutes, control lot = 100
[10] = inhibitor 4 M, 25° C. 30 minutes, control lot = 100

Molecule: CCCCC(NC(=O)C=[N+]=[N-])C(=O)OC (racemic) [diazoacetyl-DL-norleucine methyl ester]
- relative activity (residual) ([1]; Ca2+ +, inhibitor 5 mM): 72%
- Residual activity of Benz-I [2, 5]: 85
- Residual activity of Benz-II [3, 5]: 73

Molecule: O[C@H](CS)[C@H](O)CS (racemic) [dithiothreitol]
- relative activity (residual) ([1]; Ca2+ +, inhibitor 1 mM): 97%
- Residual activity of Benz-I [2, 6]: 96
- Residual activity of Benz-II [3, 6]: 128

Molecule: OCCS [2-mercaptoethanol]
- relative activity (residual) ([1]; Ca2+ +, inhibitor 1 mM): 95%
- Residual activity of Benz-I [2, 6]: 112
- Residual activity of Benz-II [3, 6]: 153

Molecule: Cc1cc(=O)oc2cc(NC(=O)[C@@H](N)CCCNC(=N)N)ccc12 [Arg--MCA]
- Activity (relative) for substrate [4]: < 1%

Molecule: CC[C@H](C)[C@H](NC(=O)OC(C)(C)C)C(=O)N[C@@H](CCC(=O)O)C(=O)NCC(=O)N[C@@H](CCCNC(=N)N)C(=O)Nc1ccc2c(C)cc(=O)oc2c1 [Boc--Ile--Glu--Gly--Arg--MCA] (Boc-IEGR-{AMC})
- Activity (relative) for substrate [4]: 5%

Molecule: Cc1cc(=O)oc2cc(NC(=O)[C@H](CCCNC(=N)N)NC(=O)CNC(=O)[C@H](CC(C)C)NC(=O)OC(C)(C)C)ccc12 [Boc--Leu--Gly--Arg--MCA] (Boc-Leu-Gly-Arg-{AMC})
- Activity (relative) for substrate [4]: 1%

Molecule: Cc1cc(=O)oc2cc(NC(=O)[C@H](CCCCN)NC(=O)[C@H](CC(C)C)NC(=O)[C@@H](NC(=O)OC(C)(C)C)C(C)C)ccc12 [Boc--Val--Leu--Lys--MCA] (Boc-Val-Leu-Lys-{AMC})
- Activity (relative) for substrate [4]: 0%

Molecule: Cc1cc(=O)oc2cc(NC(=O)[C@H](CCCNC(=N)N)NC(=O)c3ccccc3)ccc12 [Bz--Arg--MCA]
- Activity (relative) for substrate [4]: 0%

Molecule: CC(C)C[C@H](NC(=O)[C@H]1O[C@@H]1C(=O)O)C(=O)NCCCCNC(=N)N [E-64]
- relative activity (residual) ([1]; Ca2+ +, inhibitor 10 μM): 100%
- Residual activity of Benz-I [2, 7]: 99
- Residual activity of Benz-II [3, 7]: 96

Molecule: Cc1cc(=O)oc2cc(NC(=O)[C@@H](N)CC(C)C)ccc12 [Leu--MCA]
- Activity (relative) for substrate [4]: < 1%

Molecule: CCN1C(=O)C=CC1=O [N-ethylmaleimide]
- relative activity (residual) ([1]; Ca2+ +, inhibitor 1 mM): 125%
- Residual activity of Benz-I [2, 6]: 101
- Residual activity of Benz-II [3, 6]: 94

Molecule: Cc1cc(=O)oc2cc(NC(=O)[C@H](CCCNC(=N)N)NC(=O)[C@H](Cc3ccccc3)NC(=O)[C@@H]3CCCN3)ccc12 [Pro--Phe--Arg--MCA] (H-Pro-Phe-Arg-{AMC})
- Activity (relative) for substrate [4]: 0%

Molecule: Cc1cc(=O)oc2cc(NC(=O)[C@H](Cc3ccccc3)NC(=O)[C@@H]3CCCN3C(=O)[C@H](C)NC(=O)[C@H](C)NC(=O)CCC(=O)O)ccc12 [Suc--Ala--Ala--Pro--Phe--MCA] (Suc-AAPF-{AMC})
- Activity (relative) for substrate [4]: < 1%

Molecule: Cc1cc(=O)oc2cc(NC(=O)[C@H](C)NC(=O)[C@@H]3CCCN3C(=O)[C@H](C)NC(=O)CCC(=O)O)ccc12 [Suc--Ala--Pro--Ala--MCA] (Suc-Ala-Pro-Ala-{AMC})
- Activity (relative) for substrate [4]: 0%

Molecule: Cc1cc(=O)oc2cc(NC(=O)[C@@H]3CCCN3C(=O)CNC(=O)CCC(=O)O)ccc12 [Suc--Gly--Pro--MCA] (Suc-Gly-Pro-{AMC})
- Activity (relative) for substrate [4]: 0%

Molecule: Cc1cc(=O)oc2cc(NC(=O)[C@H](Cc3ccc(O)cc3)NC(=O)[C@@H](NC(=O)[C@H](CC(C)C)NC(=O)[C@H](CC(C)C)NC(=O)CCC(=O)O)C(C)C)ccc12 [Suc--Leu--Leu--Val--Tyr--MCA] (Suc-LLVY-{AMC})
- Activity (relative) for substrate [4]: 0%

Molecule: Cc1cc(=O)oc2cc(NC(=O)[C@H](CCCNC(=N)N)NC(=O)[C@H](CCCNC(=N)N)NC(=O)OCc3ccccc3)ccc12 [Z--Arg--Arg--MCA] (Cbz-Arg-Arg-{AMC})
- Activity (relative) for substrate [4]: 0%

Molecule: CC(C)[C@H](NC(=O)[C@H](CCCNC(=N)N)NC(=O)N[C@@H](Cc1ccccc1)C(=O)O)C(=O)N[C@H](C=O)CCCNC(=N)N [antipain] ({Phe-CO}-Arg-Val-Arg-aldehyde)
- relative activity (residual) ([1]; Ca2+ +, inhibitor 10 μM): 70%
- Residual activity of Benz-I [2, 7]: 89
- Residual activity of Benz-II [3, 7]: 88

Molecule: N=C(N)c1ccccc1 [benzamidine]
- relative activity (residual) ([1]; Ca2+ +, inhibitor 1 mM): 82%
- Residual activity of Benz-I [2, 6]: 79
- Residual activity of Benz-II [3, 6]: 82

Molecule: CC(C)C[C@H](NC(=O)[C@@H](O)[C@H](N)Cc1ccccc1)C(=O)O [bestatin]
- relative activity (residual) ([1]; Ca2+ +, inhibitor 10 μM): 97%
- Residual activity of Benz-I [2, 7]: 95
- Residual activity of Benz-II [3, 7]: 97

Molecule: NC(=O)CI [iodoacetamide]
- relative activity (residual) ([1]; Ca2+ +, inhibitor 1 mM): 96%
- Residual activity of Benz-I [2, 6]: 92
- Residual activity of Benz-II [3, 6]: 87

Molecule: O=C(O)CI [iodoacetic acid]
- Residual activity of Benz-I [2]: 99
- Residual activity of Benz-II [3]: 93

Molecule: CC(=O)N[C@@H](CC(C)C)C(=O)N[C@@H](CC(C)C)C(=O)N[C@H](C=O)CCCNC(=N)N [leupeptin]
- relative activity (residual) ([1]; Ca2+ +, inhibitor 10 μM): 92%
- Residual activity of Benz-I [2, 7]: 93
- Residual activity of Benz-II [3, 7]: 96

Molecule: c1cnc2c(c1)ccc1cccnc12 [o-phenanthroline]
- relative activity (residual) ([1]; Ca2+ --, inhibitor 1 mM): 91%
- Residual activity of Benz-I [2, 6]: 96
- Residual activity of Benz-II [3, 6]: 86

Molecule: CC(C)CC(=O)N[C@H](C(=O)N[C@H](C(=O)N[C@@H](CC(C)C)[C@@H](O)CC(=O)N[C@@H](C)C(=O)N[C@@H](CC(C)C)[C@@H](O)CC(=O)O)C(C)C)C(C)C [pepstatin A] (Isovaleryl-VV[Sta]A[Sta]-OH)
- relative activity (residual) ([1]; Ca2+ +, inhibitor 10 μM): 104%
- Residual activity of Benz-I [2, 7]: 100
- Residual activity of Benz-II [3, 7]: 96

Molecule: O=S(=O)(F)Cc1ccccc1 [phenylmethanesulfonyl fluoride]
- relative activity (residual) ([1]; Ca2+ +, inhibitor 1 mM): 112%
- Residual activity of Benz-I [2, 6]: 107
- Residual activity of Benz-II [3, 6]: 103

Molecule: CC(C)C[C@H](NP(=O)(O)O[C@@H]1O[C@@H](C)[C@H](O)[C@@H](O)[C@H]1O)C(=O)N[C@@H](Cc1c[nH]c2ccccc12)C(=O)O [phosphoramidon]
- relative activity (residual) ([1]; Ca2+ +, inhibitor 10 μM): 100%
- Residual activity of Benz-I [2, 7]: 101
- Residual activity of Benz-II [3, 7]: 93

Molecule: CCCCCCCCCCCCOS(=O)(=O)[O-].[Na+] [sodium dodecyl sulfate]
- Residual activity of Benz-I [2, 8]: 94
- Residual activity of Benz-II [3, 8]: 91

Molecule: Cc1ccc(S(=O)(=O)NC(CCCCN)C(=O)CCl)cc1 (stereo not drawn) [tosyllysine chloromethyl ketone]
- relative activity (residual) ([1]; Ca2+ +, inhibitor 0.2 mM): 108%
- Residual activity of Benz-I [2, 9]: 98
- Residual activity of Benz-II [3, 9]: 95

Molecule: NC(N)=O [urea]
- Residual activity of Benz-I [2, 10]: 23
- Residual activity of Benz-II [3, 10]: 29

Molecule: chymostatin
- relative activity (residual) ([1]; Ca2+ +, inhibitor 10 μM): 98%
- Residual activity of Benz-I [2, 7]: 98
- Residual activity of Benz-II [3, 7]: 99
